Drawing on ChEMBL document CHEMBL3400030, “Synthesis and biological evaluation of nonionic substrate mimics of UDP-Galp as candidate inhibitors of UDP galactopyranose mutase (UGM)” (Bioorg Med Chem Lett, 2015), this text covers Activity and inhibition for two molecules.

Assay [1] relates to Mycobacterium tuberculosis. The assay can be described thus: Inhibition of Mycobacterium tuberculosis UGM assessed as conversion of UDP-Galf into UDP-Galp at 500 uM by HPLC method. Set-up: scale not given: the % may be the effect or the level left.
The subject of assay [2] is Mycobacterium tuberculosis. The assay can be described thus: Inhibition of Mycobacterium tuberculosis UGM assessed as inhibition of conversion of UDP-Galf into UDP-Galp at 500 uM by HPLC method.

In general, inhibition refers to the drop in the measured response relative to a control, in per cent. Take `O=c1ccn(C[C@@H](O)[C@@H](O)[C@H](O)[C@H](CO)O[C@H]2O[C@H](CO)[C@H](O)[C@H](O)[C@H]2O)c(=O)[nH]1`: the Activity in assay [1] amounted to 47%. For the same molecule, in assay [2], the inhibition turned out to be 30%.

Turning to `O=c1ccn(C[C@@H](O)[C@@H](O)[C@H](O)[C@H](CO)O[C@@H]2O[C@H](CO)[C@H](O)[C@H](O)[C@H]2O)c(=O)[nH]1`, in assay [1], the Activity is 39%. For the same molecule, in assay [2], the inhibition stood at 28%.
